Where a name gives a salt, the structure may show the parent alone.
Experiments:
[1] = system: CD4+ CCR4+ T cells; assay: Chemokine stimulated increases in cellular F-actin content; format: cell-based; conditions: Homo sapiens, T-cell, 0.5 h; PBMC from normal volunteers; antagonist 30 min at 37° C. before agonist for 15 sec; F-actin content by flow cytometry; read-out: pA2 (converted)
Procedure, shortened: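 Human PBMC from citrated volunteer blood, stained for CD4 and CCR4, were pre-incubated with antagonist or vehicle (0.1% DMSO) for 30 min at 37 °C, then stimulated with agonist for 15 s and formaldehyde-fixed. F-actin was stained with phalloidin and read by flow cytometry as CD4+CCR4+ MFI relative to CD4+CCR4− cells.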

[2] = biological target: T1, CCR4 (Homo sapiens, UniProt P51679); assay: [35S]-GTPγS SPA binding assay for CCR4 antagonist activity; format: biochemical; conditions: CCR4 expressing CHO membranes; human MDC at EC80; [35S]-GTPγS competition
T1 construct: expressed in transfected cells; host or cells: CHO cell membranes
T1 sequence (P51679 1-360): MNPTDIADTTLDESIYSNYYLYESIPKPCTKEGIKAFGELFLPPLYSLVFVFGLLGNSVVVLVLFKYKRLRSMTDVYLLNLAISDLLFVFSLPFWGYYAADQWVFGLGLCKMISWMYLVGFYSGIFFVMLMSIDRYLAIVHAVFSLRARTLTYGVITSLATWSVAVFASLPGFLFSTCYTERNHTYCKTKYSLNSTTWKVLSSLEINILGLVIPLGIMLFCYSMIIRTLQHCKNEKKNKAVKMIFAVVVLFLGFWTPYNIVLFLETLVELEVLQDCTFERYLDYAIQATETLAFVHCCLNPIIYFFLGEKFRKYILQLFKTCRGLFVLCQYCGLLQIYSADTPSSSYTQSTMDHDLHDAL
Procedure: [35S]-GTPγS SPA Binding Assays for CCR4 Antagonist Activity
Antagonist potency was determined by a radioligand [35S]-GTPγS competition assay. Briefly, CCR4 expressing CHO membranes were homogenised by passing through a 23G needle. These membranes were then adhered to WGA-coated Leadseeker SPA beads in assay buffer (20 mM HEPES, 10 mM MgCl2, 100 mM NaCl, 0.05% BSA, 40 ug/ml Saponin and pH adjusted to 7.4 using KOH 5M) to generate a 3 μg/well final assay concentration (FAC) membrane and 250 μg/well FAC bead, solution.
The bead/membrane/[35S]-GTPγS/Agonist suspension was dispensed into white Greiner polypropylene 384-well plates (45 μl/well), containing 0.5 μl of compound. […] Plates were then read on a Viewlux instrument and luminescence was then plotted as a percentage of the maximum inhibitional response elicited by an IC100 of a standard antagonist.

Structure (SMILES) | IC50 [2] | Kb [1]
COc1cccc2c1c(NS(=O)(=O)c1ccc(Cl)s1)nn2Cc1cccc(CNC(=O)C2COCCN2C)c1 (single isomer, unassigned; enantiomer 1) [Example 124, N-[(3-{[3-{[(5-Chloro-2-thienyl)sulfonyl]amino}-4-(methyloxy)-1H-indazol-1-yl]methyl}phenyl)methyl]-4-methyl-3-morpholinecarboxamide Enantiomer 1] | 3.98 to 15.8 nM | ≤ 126 nM
COc1cccc2c1c(NS(=O)(=O)c1ccc(Cl)s1)nn2Cc1cccc(CNC(=O)C2COCCN2)c1 (centres unmarked) [Example 6, N-[(3-{[3-{[(5-chloro-2-thienyl)sulfonyl]amino}-4-(methyloxy)-1H-indazol-1-yl]methyl}phenyl)methyl]-3-morpholinecarboxamide trifluoroacetate] | 3.98 to 15.8 nM | ≤ 126 nM
COc1cccc2c1c(NS(=O)(=O)c1ccc(Cl)s1)nn2Cc1cccc(CNC(=O)[C@H]2COCCN2)c1 [Example 7, (3R)—N-[(3-{[3-{[(5-Chloro-2-thienyl)sulfonyl]amino}-4-(methyloxy)-1H-indazol-1-yl]methyl}phenyl)methyl]-3-morpholinecarboxamide hydrochloride] | 3.98 to 15.8 nM | ≤ 126 nM
COc1cccc2c1c(NS(=O)(=O)c1ccc(Cl)s1)nn2Cc1cccc(CNC(=O)[C@@H]2COCCN2)c1 [Example 8, (3S)—N-[(3-{[3-{[(5-Chloro-2-thienyl)sulfonyl]amino}-4-(methyloxy)-1H-indazol-1-yl]methyl}phenyl)methyl]-3-morpholinecarboxamide hydrochloride] | 3.98 to 15.8 nM | ≤ 126 nM
COc1cccc2c1c(NS(=O)(=O)c1ccc(C)s1)nn2Cc1ccc(CNC(=O)[C@H]2COCCN2)cc1 [Example 120, (3R)—N-({4-[(4-(methyloxy)-3-{[(5-methyl-2-thienyl)sulfonyl]amino}-1H-indazol-1-yl)methyl]phenyl}methyl)-3-morpholinecarboxamide trifluoroacetate] | 100 to 398 nM | –
COc1cc(F)cc2c1c(NS(=O)(=O)c1ccc(Cl)s1)nn2Cc1cccc(CNC(=O)C2COCCN2C)c1 (centres unmarked) [Example 133, N-[(3-{[3-{[(5-Chloro-2-thienyl)sulfonyl]amino}-6-fluoro-4-(methyloxy)-1H-indazol-1-yl]methyl}phenyl)methyl]-4-methyl-3-morpholinecarboxamide] | 3.98 to 15.8 nM | –
COc1c(F)ccc2c1c(NS(=O)(=O)c1ccc(Cl)s1)nn2Cc1cccc(CNC(C)=O)c1 [Example 134, N-[(3-{[3-{[(5-Chloro-2-thienyl)sulfonyl]amino}-5-fluoro-4-(methyloxy)-1H-indazol-1-yl]methyl}phenyl)methyl]acetamide] | 3.98 to 15.8 nM | –
COc1cccc2c1c(NS(=O)(=O)c1ccc(Cl)s1)nn2Cc1cccc(CNC(=O)CCCCC(=O)O)c1 [Example 140, 6-{[(3-{[3-{[(5-Chloro-2-thienyl)sulfonyl]amino}-4-(methyloxy)-1H-indazol-1-yl]methyl}phenyl)methyl]amino}-6-oxohexanoic acid] | 3.98 to 15.8 nM | –
COc1cccc2c1c(NS(=O)(=O)c1ccc(Cl)s1)nn2Cc1cccc(CNC(=O)c2ccc(C(=O)O)cc2)c1 [Example 142, 4-({[(3-{[3-{[(5-Chloro-2-thienyl)sulfonyl]amino}-4-(methyloxy)-1H-indazol-1-yl]methyl}phenyl)methyl]amino}carbonyl)benzoic acid] | 3.98 to 15.8 nM | –
COc1cccc2c1c(NS(=O)(=O)c1ccc(Cl)s1)nn2Cc1cccc(CNC(=O)[C@H]2CC[C@H](C(=O)O)CC2)c1 [Example 143, trans-4-({[(3-{[3-{[(5-Chloro-2-thienyl)sulfonyl]amino}-4-(methyloxy)-1H-indazol-1-yl]methyl}phenyl)methyl]amino}carbonyl)cyclohexanecarboxylic acid] | 3.98 to 15.8 nM | –
COc1cccc2c1c(NS(=O)(=O)c1ccc(Cl)s1)nn2Cc1cccc(CNC(=O)CCCCCCC(=O)O)c1 [Example 144, 8-{[(3-{[3-{[(5-Chloro-2-thienyl)sulfonyl]amino}-4-(methyloxy)-1H-indazol-1-yl]methyl}phenyl)methyl]amino}-8-oxooctanoic acid] | 3.98 to 15.8 nM | –
CC(=O)NCc1cccc(Cn2nc(NS(=O)(=O)c3ccc(Cl)s3)c3c(CO)cccc32)c1 [Example 148, N-[(3-{[3-{[(5-Chloro-2-thienyl)sulfonyl]amino}-4-(hydroxymethyl)-1H-indazol-1-yl]methyl}phenyl)methyl]acetamide] | 3.98 to 15.8 nM | –
CC(O)c1cccc2c1c(NS(=O)(=O)c1ccc(Cl)s1)nn2Cc1cccc(CNC(=O)C(C)(C)O)c1 (centres unmarked) [Example 151, N-[(3-{[3-{[(5-Chloro-2-thienyl)sulfonyl]amino}-4-(1-hydroxyethyl)-1H-indazol-1-yl]methyl}phenyl)methyl]-2-hydroxy-2-methylpropanamide] | 3.98 to 15.8 nM | –
CC(O)c1cccc2c1c(NS(=O)(=O)c1ccc(Cl)s1)nn2Cc1cccc(CNC(=O)[C@H]2COCCN2)c1 (stereo partly drawn) [Example 152, (3R)—N-[(3-{[3-{[(5-Chloro-2-thienyl)sulfonyl]amino}-4-(1-hydroxyethyl)-1H-indazol-1-yl]methyl}phenyl)methyl]-3-morpholinecarboxamide formate salt] | 3.98 to 15.8 nM | –
CC(O)c1cccc2c1c(NS(=O)(=O)c1ccc(Cl)s1)nn2Cc1cccc(CNC(=O)[C@@H]2COCCN2)c1 (stereo partly drawn) [Example 153, (3S)—N-[(3-{[3-{[(5-Chloro-2-thienyl)sulfonyl]amino}-4-(1-hydroxyethyl)-1H-indazol-1-yl]methyl}phenyl)methyl]-3-morpholinecarboxamide formate salt] | 3.98 to 15.8 nM | –
CC(C)(O)c1cccc2c1c(NS(=O)(=O)c1ccc(Cl)s1)nn2Cc1cccc(CNC(=O)[C@@H]2COCCN2)c1 [Example 156, (3S)—N-[(3-{[3-{[(5-Chloro-2-thienyl)sulfonyl]amino}-4-(1-hydroxy-1-methylethyl)-1H-indazol-1-yl]methyl}phenyl)methyl]-3-morpholinecarboxamide] | 100 to 398 nM | –

More lines, main results first:

IC50 [2] | Structure (SMILES) | Kb [1]
3.98 to 15.8 nM | CCC(=O)NCc1cccc(Cn2nc(NS(=O)(=O)c3ccc(Cl)s3)c3c(OC)cccc32)c1 [Example 2, N-[(3-{[3-{[(5-chloro-2-thienyl)sulfonyl]amino}-4-(methyloxy)-1H-indazol-1-yl]methyl}phenyl)methyl]propanamide] | ≤ 126 nM
3.98 to 15.8 nM | COc1cccc2c1c(NS(=O)(=O)c1ccc(Cl)s1)nn2Cc1cccc(CNC(=O)C(C)C)c1 [Example 3, N-[(3-{[3-{[(5-chloro-2-thienyl)sulfonyl]amino}-4-(methyloxy)-1H-indazol-1-yl]methyl}phenyl)methyl]-2-methylpropanamide] | ≤ 126 nM
3.98 to 15.8 nM | COc1cccc2c1c(NS(=O)(=O)c1ccc(Cl)s1)nn2Cc1cccc(CNC(=O)C(C)(C)C)c1 [Example 4, N-[(3-{[3-{[(5-chloro-2-thienyl)sulfonyl]amino}-4-(methyloxy)-1H-indazol-1-yl]methyl}phenyl)methyl]-2,2-dimethylpropanamide] | ≤ 126 nM
3.98 to 15.8 nM | CN[C@H](C)C(=O)NCc1cccc(Cn2nc(NS(=O)(=O)c3ccc(Cl)s3)c3c(OC)cccc32)c1 [Example 10, N^1-[(3-{[3-{[(5-chloro-2-thienyl)sulfonyl]amino}-4-(methyloxy)-1H-indazol-1-yl]methyl}phenyl)methyl]-N^2-methyl-D-alaninamide hydrochloride] | ≤ 126 nM
3.98 to 15.8 nM | COc1cccc2c1c(NS(=O)(=O)c1ccc(Cl)s1)nn2Cc1cccc(CNC(=O)C(C)(C)N)c1 [Example 127, N^1-[(3-{[3-{[(5-Chloro-2-thienyl)sulfonyl]amino}-4-(methyloxy)-1H-indazol-1-yl]methyl}phenyl)methyl]-2-methylalaninamide] | –
3.98 to 15.8 nM | COc1cccc2c1c(NS(=O)(=O)c1ccc(Cl)s1)nn2Cc1cccc(CNC(=O)CCC(=O)O)c1 [Example 138, 4-{[(3-{[3-{[(5-Chloro-2-thienyl)sulfonyl]amino}-4-(methyloxy)-1H-indazol-1-yl]methyl}phenyl)methyl]amino}-4-oxobutanoic acid] | –
3.98 to 15.8 nM | COc1cccc2c1c(NS(=O)(=O)c1ccc(Cl)s1)nn2Cc1cccc(CNC(=O)CCCC(=O)O)c1 [Example 139, 5-{[(3-{[3-{[(5-Chloro-2-thienyl)sulfonyl]amino}-4-(methyloxy)-1H-indazol-1-yl]methyl}phenyl)methyl]amino}-5-oxopentanoic acid] | –
3.98 to 15.8 nM | CC(=O)NCc1cccc(Cn2nc(NS(=O)(=O)c3ccc(Cl)s3)c3c(C(C)O)cccc32)c1 (centres unmarked) [Example 149, N-[(3-{[3-{[(5-Chloro-2-thienyl)sulfonyl]amino}-4-(1-hydroxyethyl)-1H-indazol-1-yl]methyl}phenyl)methyl]acetamide] | –
